Data set [1] relates to HeLa cells. In words: Measurement of mitochondrial membrane potential (JC-1, flow cytometry). The class given is cell-based, human. The conditions noted are these: Mtx-Fxr3 16 μM 72 hours, FCCP 10 μM 6 minutes. The protocol: HeLa cells were seeded in at 6,250 cells per well in 24 well plates. […] Carbonyl cyanide 4-(trifluoromethoxy)phenylhydrazone (FCCP) was added at 10 μM for 6 minutes prior to analysis to disrupt the mitochondrial membrane potential. The mitchondrial membrane potential sensitive dye JC-1 (Invitrogen, Carlsbad Calif.) was added at 5 μg/mL for 10 minutes at 37° C. Cells were washed with PBS and harvested as described above. Samples were subsequently analyzed by flow cytometry on a BD FACSCanto flow cytometer (BD Biosciences) with excitation at 488 nm and emmission wavelengths of 530 nm and 585 nm collected. Ratio of these two emmission wavelengths was used to measure changes in mitochondrial membrane potential.

In a further data set the test system is B. subtilis. In words: microbe, parasite or virus in culture. The class given is cell-based, Bacillus subtilis. The protocol:
(§1) Cell Culturing Conditions. HeLa cells were cultured in MEM alpha (Invitrogen, Carlsbad) supplemented with 10% (v/v) FBS at 37° C. with 5% CO2. Escherichia coli strain JW5503 from the Keio collection^12 (F−, Δ(araD-araB)567, ΔlacZ4787(:rrnB-3), λ^−, ΔtolC732:kan, rph-1, Δ(rhaD-rhaB)568, hsdR514) was grown on solid LB-agar or in LB liquid media supplemented with 50 μg/mL kanamycin at 37° C. Strains harboring the pCA24N plasmid were additionally grown with chloramphenicol at 20 μg/mL. B. subtilis was grown in LB media. S. aureus and E. faecalis were grown in Trypticase Soy Broth (TSB). S. pneumoniae were grown in TSB+5% defibrinated sheep's blood at 37° C. in an atmosphere of 5% CO2.
(§2) Minimum inhibitory concentration (MIC) determinations were performed to characterize the effect of each compound on bacterial growth. Briefly, overnight cultures were subcultured at 1:100 and grown to and OD600 of 0.5. Cells were Diluted 1:10000 into fresh media with test compounds. Cells were incubated for 16 hours at 37° C. Growth was monitored at OD600. Multi-copy suppression of compound toxicity was accomplished by inducing FolA (DHFR) expression from the pCA24N plasmid with 0.1 mM IPTG prior the incubation with test compounds. Compound toxicity was assessed in LB media for E. coli. […]

A further data set concerns S. aureus (ATCC 29213). In words: microbe, parasite or virus in culture. The format is cell-based, Staphylococcus aureus. As to the method:
as §1, §2

For the next data set, the system named is MRSA (ATCC BAA-1720). In words: microbe, parasite or virus in culture. The format is cell-based, methicillin-resistant S. aureus. As to the method: as §1, §2
For the next data set, the system named is E. faecalis (ATCC 29212). In words: microbe, parasite or virus in culture. The class given is cell-based, Enterococcus faecalis. The protocol:
as §1, §2

For data set [2], the system named is S. pneumoniae (ATCC 49619). In words: microbe, parasite or virus in culture. The format is cell-based, Streptococcus pneumoniae.
Protocol: Minimum inhibitory concentration (MIC) determinations were performed to characterize the effect of each compound on bacterial growth. Briefly, overnight cultures were subcultured at 1:100 and grown to and OD600 of 0.5. Cells were Diluted 1:10000 into fresh media with test compounds. Cells were incubated for 16 hours at 37° C. Growth was monitored at OD600. […] For S. aureus B. subtilis, S. pneumonaie, and E. faecalis the defined media Mem-alpha minus nucleotides (Invitrogen, Carlsbad Calif.) was used to control for variability in thymidine content of undefined media. The final dilution into media was at 1:2000 for S. pneumoniae, and E. faecalis. 3% laked horse blood was added to the media for S. pnemoniae.
For the next data set, the system named is E. coli strain JW5503. In words: microbe, parasite or virus in culture. The class given is cell-based, Escherichia coli. The protocol:
as §1, §2

Data set [3] has as its system HeLa cells. In words: Measurement of cellular ATP levels. To be noted: Mtx-Fxr3 16 μM 16 hours, rotenone 100 nM 1 hour. The class given is cell-based, human. As to the method:
HeLa cells were seeded at a density of 50,000 cells per well one day prior to experiments. […] After treatment, cells were washed with PBS, harvested with trypsin/EDTA for 7 min at 37° C. Complete media was added to terminate the reaction and cells were collected by centrifugation (8 min at 700×g) and washed with PBS. Cells were lysed with 40 μl 1% TCA/4 mM EDTA for 20 minutes on ice, followed by 20 μl 1M Tris buffer pH 7.4. ATP levels were assessed using the ATP Bioluminescent Assay Kit (Sigma, Saint Louis Mich.) and a Spectramax M5 plate reader (Molecular Devices, Sunnyvale Calif.).

A short description of data set [4]: Analysis of cell toxicity (HeLa), CCK-8 viability. The format is cell-based. To be noted: human, HeLa cells, 72-hour incubation, read-out: LD50 (50% lethal dose, concentration where 50% toxicity is observed).
Protocol: HeLa cells were cultured as described above. Cells were seeded in 96-well flat bottom tissue culture plates (Starsted, N.C.) at a density of 1500 cells per well. The culture media was removed and cells were washed with MEM-alpha (minus nucleotides). […] Cellular viability was analyzed after the indicated times using the CCK-8 viability dye (Dojindo, Rockville, Md.) at an absorbance of 450 nm.

Values after ≈ are worked out from the molar mass of the structure shown. “Also recorded” adds a separate entry of the source. Like-named read-outs stand apart in the source and are kept apart here. Starred links: 1 amine or outer side, 2 acyl side, 3 side chain; linkers in the order of their positions; H or OH if unused. Non-standard residues stand in square brackets, D forms with d. Residues, ends and D or L forms follow the SMILES beside them. *: point of attachment. DAMPA = CN(Cc1cnc2nc(N)nc(N)c2n1)c1ccc(C(=O)*)cc1; γGlu = O=C(O)[C@H](CCC(=O)[*:2])N[*:1]; Cha = N[C@@H](CC1CCCCC1)C(=O)O

For the compound `N#CC(C#N)=NNc1ccc(OC(F)(F)F)cc1` [FCCP, Carbonyl cyanide 4-(trifluoromethoxy)phenylhydrazone, reference compound], in the data set on HeLa cells [1], the “effect on mitochondrial membrane potential” value was “significant decrease in membrane potential”.
For the compound `N=C(N)NCCC[C@@H](NC(=O)[C@H](CC1CCCCC1)NC(=O)[C@@H](CCCNC(=N)N)NC(=O)[C@H](CC1CCCCC1)NC(=O)[C@@H](CCCNC(=N)N)NC(=O)[C@@H](N)CC1CCCCC1)C(N)=O` [Fxr3, FxrFxrFxr] (H-[Cha][dR][Cha][dR][Cha][dR]-NH2; N-terminus assumed), the MIC in the data set on B. subtilis is above 16 µM; in the data set on S. aureus (ATCC 29213) (ATCC 29213) it was above 32 µM; in the data set on MRSA (ATCC BAA-1720) (ATCC BAA-1720) it was above 32 µM; with E. faecalis (ATCC 29212) (ATCC 29212), above 16 µM; in [2] (ATCC 49619), above 16 µM.
Regarding `CN(Cc1cnc2nc(N)nc(N)c2n1)c1ccc(C(=O)N[C@@H](CCC(=O)O)C(=O)O)cc1` [Mtx, methotrexate, reference compound], the MIC in the data set on B. subtilis (Bacillus subtilis, B. subtilis, Mem-alpha minus nucleotides) was above 16 µM; with S. aureus (ATCC 29213) (Staphylococcus aureus, ATCC29213, S. aureus (ATCC 29213), Mem-alpha minus nucleotides) it was above 32 µM; against MRSA (ATCC BAA-1720) (Staphylococcus aureus, MRSA (ATCC BAA-1720)) it was above 32 µM; in the data set with E. coli strain JW5503 (Escherichia coli, JW5503, 16 h, read-out: MIC (minimum inhibitory concentration)) it was above 32 µM; in the data set on E. faecalis (ATCC 29212) (Enterococcus faecalis, ATCC29212, E. faecalis (ATCC 29212), Mem-alpha minus nucleotides), 4 µM (≈ 1.82 µg/mL); in [2] (Streptococcus pneumoniae, ATCC49619, S. pneumoniae (ATCC 49619), Mem-alpha minus nucleotides, 3% laked horse blood), 0.5 µM (≈ 0.227 µg/mL).
Consider `CN(Cc1cnc2nc(N)nc(N)c2n1)c1ccc(C(=O)N[C@@H](CCC(=O)N[C@@H](CC2CCCCC2)C(=O)N[C@H](CCCNC(=N)N)C(=O)N[C@@H](CC2CCCCC2)C(=O)N[C@H](CCCNC(=N)N)C(=O)N[C@@H](CC2CCCCC2)C(=O)N[C@H](CCCNC(=N)N)C(N)=O)C(=O)O)cc1` [Mtx-Fxr3, Mtx-FxrFxrFxr] ({DAMPA-γGlu}-[Cha][dR][Cha][dR][Cha][dR]-NH2), for which the “effect on mitochondrial membrane potential” value with HeLa cells [1] was “not perturb the mitochondrial membrane potential; also recorded: did not affect”. In the data set on E. coli strain JW5503 (strain JW5503, 16 h), the “MIC (minimum inhibitory concentration)” value is 0.5 µM (≈ 0.691 µg/mL). The “effect on cellular ATP levels” value with HeLa cells [3] is on record as “did not result in a decrease in cellular ATP levels; also recorded: did not affect”. The CC50 at 72 h in [4] was above 16 µM.

(Values after US9173952B2, “Mitochondrial penetrating peptides as carriers for antimicrobials” (priority 2010, dated 2015).)
